Data from patent US20060148907A1, “Topical antinflammatory preparations of y-terpinene” (priority 2002, published 2006).
Entries after “also recorded” stand apart in the source; their conditions may differ. Read-outs that look alike come from different tables or passages of the source.

How the values were obtained:
[1] = system: skin erythemal response induced by solar simulated UV on the dorsal skin of human subjects; assay: Human study: reduction of skin erythemal response induced by solar simulated UV; assay type: in vivo; settings: for Reduction in Erythema vs Base: 4 mg/sq cm immediately after irradiation and 4-5 hours later, erythema read 16-24 hours later; for statistical difference from the Base and UV alone (MED): p<0.05
[2] = system: carrageenan induced hind paw edema; settings: cited from earlier work
[3] = cited from earlier work
[4] = 1% (1.0%) in BP 1988 Cetomacrogol Cream
[5] = 0.25% in BP 1988 Cetomacrogol Cream
[6] = 0.5% in BP 1988 Cetomacrogol Cream

Structure (SMILES)	Reduction in Erythema vs Base [1, 4] [%]	anti-inflammatory effectiveness in words (compared to Indomethacin) ([1]; 1% (1.0%) product)	Reduction in Erythema vs Base [1, 5] [%]	Reduction in Erythema vs Base [1, 6] [%]	anti-inflammatory effectiveness in words (compared to Indomethacin) ([1]; 0.25% product)	other results
COc1ccc2c(c1)c(CC(=O)O)c(C)n2C(=O)c1ccc(Cl)cc1 [Indomethacin, reference compound]	66	most effective anti-inflammatory				
CC(C)=CCC[C@](C)(O)[C@@H]1CC=C(C)CC1 [(−) alpha-Bisabolol, (−)-alpha-bisabolol, reference compound]			10	44		statistical difference from the Base and UV alone (MED) ([1]; 0.50% product): statistically different
CC1=CCC(O)(C(C)C)CC1 (stereo not drawn) [Terpinen-4-ol, terpinen-4-ol, reference compound]		good performance status	7	45		anti-inflammatory activity ([2]; dosages from 0.03 mg/paw to 6.0 mg/paw): significant anti-inflammatory activity; acute oral LD50 [3]: 1300 mg/kg
CC1=CC=C(C(C)C)CC1 [α-terpinene]			58		good performance status	anti-inflammatory activity (inhibition of edema formation) ([2]; highest dose tested, 6 mg/paw): significant anti-inflammatory activity; anti-inflammatory activity (inhibition of edema formation) ([2]; lesser dosages than 6 mg/paw): relatively weak
CC1=CCC(C(C)C)=CC1 [γ-terpinene]	32	statistically similar	52	29	high effective anti-inflammatory	anti-inflammatory activity ([2]; dose not given): ineffective; also recorded: did not exhibit any significant anti-inflammatory activity; statistical difference from the Base and UV alone (MED) ([1]; 0.25% product): statistically different; more erythema than Indomethacin ([1]; 1.0% product vs 1% Indomethacin): 98%; reducing UV erythema (MED) ([1]; 1.0% product vs UV alone (MED)): 39%; statistical difference from the Base and UV alone (MED) ([1]; 1.0% product): not significantly different from the Base; also recorded: significantly different from the MED
